According to patent publication US7148229B2, “Sulfonamide substituted xanthine derivatives” (Hoffman-La Roche Inc., priority 2003, dated 2006):
Structures can show the parent of a compound that is named as a salt.

Molecular target: T1, recombinant human cytosolic PEPCK (GST-PEPCK) (Homo sapiens, UniProt P35558)
T1 construct: made in house; host or cells: E. coli
T1 sequence (P35558 1-622): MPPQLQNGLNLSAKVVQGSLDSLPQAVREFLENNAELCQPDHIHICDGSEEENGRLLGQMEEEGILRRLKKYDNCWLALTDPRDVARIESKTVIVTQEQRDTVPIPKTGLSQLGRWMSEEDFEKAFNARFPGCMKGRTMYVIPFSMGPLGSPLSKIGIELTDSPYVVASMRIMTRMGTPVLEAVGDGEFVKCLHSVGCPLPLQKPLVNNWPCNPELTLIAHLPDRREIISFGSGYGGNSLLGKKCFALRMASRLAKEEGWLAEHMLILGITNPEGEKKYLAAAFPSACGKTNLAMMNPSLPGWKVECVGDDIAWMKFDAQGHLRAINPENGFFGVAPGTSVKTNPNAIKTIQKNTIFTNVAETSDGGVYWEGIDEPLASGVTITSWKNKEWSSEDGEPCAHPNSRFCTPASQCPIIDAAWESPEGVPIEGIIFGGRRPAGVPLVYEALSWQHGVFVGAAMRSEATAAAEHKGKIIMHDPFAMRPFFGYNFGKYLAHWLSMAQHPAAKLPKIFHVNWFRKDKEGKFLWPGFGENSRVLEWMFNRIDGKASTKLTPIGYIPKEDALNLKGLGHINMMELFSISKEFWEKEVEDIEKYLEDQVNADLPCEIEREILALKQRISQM
Assay: PEPCK enzyme assay (coupled to pyruvate kinase / lactate dehydrogenase, absorbance at 340 nm)
Type: biochemical
Conditions: in vitro PEPCK enzymatic assay; GTP at 3 fold and OAA at 10 fold Km; final DMSO 10%; room temperature, twenty minutes
Description: E. coli cells expressing GST-PEPCK were suspended in 5 volumes of lysis buffer (50 mM Tris-hydroxymethyl aminomethyl (TRIS), 150 mM sodium chloride (NaCl), 10 mM ethylene-diametetraacetic acid (EDTA), 5 mM dithiothreitol(DTT), 1% Nonidet P-40, pH 7.4) in the presence of protease inhibitors, incubated with lysozyme at 200 micrograms/ml for 30 min. at room temperature, and sonicated 4×30 seconds at 4 degrees C. After centrifugation at 12,000×g for 20 min. to remove insoluble material, the supernatant was loaded onto glutathione Sepharose (Pharmacia), washed with lysis buffer followed by washing with lysis buffer in the absence of NP-40. GST-PEPCK was eluted with the same buffer containing 20 mM glutathione. The eluted protein was concentrated and dialyzed against 25 mM Hepes(N-[2-hydroxyethyl]piperazine-N′[2-ethanesulfonic acid), 150 mM NaCl, 2.5 mM EDTA, 5 mM DTT, 30% glycerol, pH 7.4, and stored at −20° C.
The inhibitory effect of the compounds of the present invention on PEPCK enzymatic activity was determined using recombinant human cytosolic PEPCK, expressed and purified from E.coli as a GST-fusion. Guanosine triphosphate (GTP) and manganese dependent PEPCK enzyme activity catalyzed the decarboxylation of oxalacetate leading to the formation of guanosine diphosphate (GDP) and phosphoenol pyruvate (PEP). This reaction is coupled to pyruvate kinase and lactate dehydrogenase catalyzed reactions and the overall reaction rate determined by measuring the change in absorbance at 340 nm (Chang, H. C. and Lane M. D., J. Biol. Chem. 241:2413–2420, 1966). The following modifications were made to the protocol: 2.5 μg of recombinant, human cytosolic glutathione-S-transferase (GST)-PEPCK was added to a reaction mixture at room temperature which contained 0.3 mM GTP, 0.3 mM oxaloacetate (OAA), 3 mM magnesium chloride (MgCl2), 0.075 mM manganese chloride (MnCl2), 30 mM potassium phosphates (KPO4), pH 7.6, 1 mM dithiothreitol (DTT), 0.2 mM adenosine diphosphate (ADP), 1 mM nicotinamide adenine dinucleotide, reduced form (NADH), 0.9 Units/ml each of pyruvate kinase and lactate dehydrogenase and 1 mg/ml bovine serum albumin (BSA). Test compounds were added such that final concentration of DMSO was 10%. Reactions were run for twenty minutes.
Km values for GTP and OAA were determined according to Michelis-Menton conditions as described in Comish-Bowden (Fundamentals of Enzyme Kinetics, 1995) in essentially the coupled assay conditions described above. […] Test compounds were added to reactions over a range of concentrations and IC50's were calculated from plots of inhibitor concentration versus enzyme rate. This method of determination of IC50 values is equally applicable to calculations based on PEPCK cellular assay.

Row | IC50 [µM] | SMILES
1 | 0.29 | Cc1nn(C)c(Cl)c1S(=O)(=O)Nc1ccc(Cc2nc3c([nH]2)c(=O)n(Cc2ccccc2F)c(=O)n3CC2CC2)cc1 [Example 1, 5-Chloro-1,3-dimethyl-1H-pyrazole-4-sulfonic acid {4-[3-cyclopropylmethyl-1-(2-fluoro-benzyl)-2,6-dioxo-2,3,6,7-tetrahydro-1H-purin-8-ylmethyl]-phenyl}-amide]
2 | 1.1 | Cc1nn(C)c(Cl)c1S(=O)(=O)Nc1cccc(Cc2nc3c([nH]2)c(=O)n(Cc2ccccc2F)c(=O)n3CC2CC2)c1 [Example 6, 5-Chloro-1,3-dimethyl-1H-pyrazole-4-sulfonic acid {3-[3-cyclopropylmethyl-1-(2-fluoro-benzyl)-2,6-dioxo-2,3,6,7-tetrahydro-1H-purin-8-ylmethyl]-phenyl}-amide]
3 | 0.15 | Cc1nn(C)cc1S(=O)(=O)Nc1ccc(Cc2nc3c([nH]2)c(=O)n(Cc2ccccc2F)c(=O)n3CC2CC2)cc1 [Example 7, 1,3-Dimethyl-1H-pyrazole-4-sulfonic acid {4-[3-cyclopropylmethyl-1-(2-fluoro-benzyl)-2,6-dioxo-2,3,6,7-tetrahydro-1H-purin-8-ylmethyl]-phenyl}-amide]
4 | 0.23 | Cc1nc(N)sc1S(=O)(=O)Nc1ccc(Cc2nc3c([nH]2)c(=O)n(Cc2ccccc2F)c(=O)n3CC2CC2)cc1 [Example 11, 2-Amino-4-methyl-thiazole-5-sulfonic acid {4-[3-cyclopropylmethyl-1-(2-fluoro-benzyl)-2,6-dioxo-2,3,6,7-tetrahydro-1H-purin-8-ylmethyl]-phenyl}-amide trifluoro-acetic acid salt]
5 | 0.79 | Cc1noc(C)c1S(=O)(=O)Nc1ccc(Cc2nc3c([nH]2)c(=O)n(Cc2ccccc2F)c(=O)n3CC2CC2)cc1 [Example 12, 3,5-Dimethyl-isoxazole-4-sulfonic acid {4-[3-cyclopropylmethyl-1-(2-fluoro-benzyl)-2,6-dioxo-2,3,6,7-tetrahydro-1H-purin-8-ylmethyl]-phenyl}-amide]
6 | 0.34 | Cc1nc(S(=O)(=O)Nc2ccc(Cc3nc4c([nH]3)c(=O)n(Cc3ccccc3F)c(=O)n4CC3CC3)cc2)cn1C [Example 13, 1,2-Dimethyl-1H-imidazole-4-sulfonic acid {4-[3-cyclopropylmethyl-1-(2-fluoro-benzyl)-2,6-dioxo-2,3,6,7-tetrahydro-1H-purin-8-ylmethyl]-phenyl}-amide]
7 | 0.41 | Cn1cnc(S(=O)(=O)Nc2ccc(Cc3nc4c([nH]3)c(=O)n(Cc3ccccc3F)c(=O)n4CC3CC3)cc2)c1 [Example 14, 1-Methyl-1H-imidazole-4-sulfonic acid {4-[3-cyclopropylmethyl-1-(2-fluoro-benzyl)-2,6-dioxo-2,3,6,7-tetrahydro-1H-purin-8-ylmethyl]-phenyl}-amide]
8 | 0.96 | CN(C)S(=O)(=O)Nc1ccc(Cc2nc3c([nH]2)c(=O)n(Cc2ccccc2F)c(=O)n3CC2CC2)cc1 [Example 17, N-{4-[3-Cyclopropylmethyl-1-(2-fluoro-benzyl)-2,6-dioxo-2,3,6,7-tetrahydro-1H-purin-8-ylmethyl]-phenyl}-N,N-dimethylsulfamide]
9 | 2.05 | Cc1nn(C)c(Cl)c1S(=O)(=O)N(C)c1ccc(Cc2nc3c([nH]2)c(=O)n(Cc2ccccc2F)c(=O)n3CC2CC2)cc1 [Example 18, 5-Chloro-1,3-dimethyl-1H-pyrazole-4-sulfonic acid {4-[3-cyclopropylmethyl-1-(2-fluoro-benzyl)-2,6-dioxo-2,3,6,7-tetrahydro-1H-purin-8-ylmethyl]-phenyl}-methyl-amide]
10 | 1.25 | CS(=O)(=O)Nc1ccc(Cc2nc3c([nH]2)c(=O)n(Cc2ccccc2F)c(=O)n3CC2CC2)cc1 [Example 23, N-{4-[3-Cyclopropylmethyl-1-(2-fluoro-benzyl)-2,6-dioxo-2,3,6,7-tetrahydro-1H-purin-8-ylmethyl]-phenyl}-methanesulfonamide]

Second part, the compound before the results:

Row | SMILES | IC50 [µM]
11 | Cn1cc(S(=O)(=O)Nc2ccc(Cc3nc4c([nH]3)c(=O)n(Cc3ccccc3F)c(=O)n4CC3CC3)cc2)cn1 [Example 2, 1-Methyl-1H-pyrazole-4-sulfonic acid {4-[3-cyclopropylmethyl-1-(2-fluoro-benzyl)-2,6-dioxo-2,3,6,7-tetrahydro-1H-purin-8-ylmethyl]-phenyl}-amide] | 0.39
12 | COc1cccc(S(=O)(=O)Nc2ccc(Cc3nc4c([nH]3)c(=O)n(Cc3ccccc3F)c(=O)n4CC3CC3)cc2)c1 [Example 3, N-{4-[3-Cyclopropylmethyl-1-(2-fluoro-benzyl)-2,6-dioxo-2,3,6,7-tetrahydro-1H-purin-8-ylmethyl]-phenyl}-3-methoxy-benzenesulfonamide] | 1.2
13 | O=c1c2[nH]c(Cc3ccc(NS(=O)(=O)c4cccc(F)c4)cc3)nc2n(CC2CC2)c(=O)n1Cc1ccccc1F [Example 4, N-{4-[3-Cyclopropylmethyl-1-(2-fluoro-benzyl)-2,6-dioxo-2,3,6,7-tetrahydro-1H-purin-8-ylmethyl]-phenyl}-3-fluoro-benzenesulfonamide] | 2.55
14 | O=c1c2[nH]c(Cc3ccc(NS(=O)(=O)c4cnc(Cl)c(Br)c4)cc3)nc2n(CC2CC2)c(=O)n1Cc1ccccc1F [Example 5, 5-Bromo-6-chloro-pyridine-3-sulfonic acid {4-[3-cyclopropylmethyl-1-(2-fluoro-benzyl)-2,6-dioxo-2,3,6,7-tetrahydro-1H-purin-8-ylmethyl]-phenyl}-amide] | 4.58
15 | CC(=O)Nc1nc(C)c(S(=O)(=O)Nc2ccc(Cc3nc4c([nH]3)c(=O)n(Cc3ccccc3F)c(=O)n4CC3CC3)cc2)s1 [Example 10, N-(5-{4-[3-Cyclopropylmethyl-1-(2-fluoro-benzyl)-2,6-dioxo-2,3,6,7-tetrahydro-1H-purin-8-ylmethyl]-phenylsulfamoyl}-4-methyl-thiazol-2-yl)-acetamide] | 0.22
16 | O=c1c2[nH]c(Cc3ccc(NS(=O)(=O)c4cccc5cccnc45)cc3)nc2n(CC2CC2)c(=O)n1Cc1ccccc1F [Example 19, Quinoline-8-sulfonic acid {4-[3-cyclopropylmethyl-1-(2-fluoro-benzyl)-2,6-dioxo-2,3,6,7-tetrahydro-1H-purin-8-ylmethyl]-phenyl}-amide] | 0.45
17 | CC(=O)Nc1ccc(S(=O)(=O)Nc2ccc(Cc3nc4c([nH]3)c(=O)n(Cc3ccccc3F)c(=O)n4CC3CC3)cc2)cc1 [Example 20, N-(4-{4-[3-Cyclopropylmethyl-1-(2-fluoro-benzyl)-2,6-dioxo-2,3,6,7-tetrahydro-1H-purin-8-ylmethyl]-phenylsulfamoyl}-phenyl)-acetamide] | 6.25
18 | CCCCn1c(=O)n(Cc2ccccc2)c(=O)c2[nH]c(Cc3ccc(NS(=O)(=O)c4ccc(C)cc4)cc3)nc21 [Example 21, N-[4-(1-Benzyl-3-butyl-2,6-dioxo-2,3,6,7-tetrahydro-1H-purin-8-ylmethyl)-phenyl]-4-methyl-benzenesulfonamide] | 7.65
19 | O=c1c2[nH]c(Cc3ccc(NS(=O)(=O)c4cccnc4)cc3)nc2n(CC2CC2)c(=O)n1Cc1ccccc1F [Example 22, Pyridine-3-sulfonic acid {4-[3-cyclopropylmethyl-1-(2-fluoro-benzyl)-2,6-dioxo-2,3,6,7-tetrahydro-1H-purin-8-ylmethyl]-phenyl}-amide trifluoro-acetic acid salt] | 1.95
